These results are taken from article PMC9917282, “Crystal Structure of Inhibitor-Bound Bacterial Oligopeptidase B in the Closed State: Similarity and Difference between Protozoan and Bacterial Enzymes” (International Journal of Molecular Sciences, 2023).

This assay addresses T1, SpOpB (PSP) (Serratia proteamaculans, UniProt B3VI58).
T1 construct: gene opdB; plasmid pET-6HisOpB, expressed in E. coli BL21(DE3)RIPL; monomer in asymmetric unit
T1 sequence (B3VI58 2-677): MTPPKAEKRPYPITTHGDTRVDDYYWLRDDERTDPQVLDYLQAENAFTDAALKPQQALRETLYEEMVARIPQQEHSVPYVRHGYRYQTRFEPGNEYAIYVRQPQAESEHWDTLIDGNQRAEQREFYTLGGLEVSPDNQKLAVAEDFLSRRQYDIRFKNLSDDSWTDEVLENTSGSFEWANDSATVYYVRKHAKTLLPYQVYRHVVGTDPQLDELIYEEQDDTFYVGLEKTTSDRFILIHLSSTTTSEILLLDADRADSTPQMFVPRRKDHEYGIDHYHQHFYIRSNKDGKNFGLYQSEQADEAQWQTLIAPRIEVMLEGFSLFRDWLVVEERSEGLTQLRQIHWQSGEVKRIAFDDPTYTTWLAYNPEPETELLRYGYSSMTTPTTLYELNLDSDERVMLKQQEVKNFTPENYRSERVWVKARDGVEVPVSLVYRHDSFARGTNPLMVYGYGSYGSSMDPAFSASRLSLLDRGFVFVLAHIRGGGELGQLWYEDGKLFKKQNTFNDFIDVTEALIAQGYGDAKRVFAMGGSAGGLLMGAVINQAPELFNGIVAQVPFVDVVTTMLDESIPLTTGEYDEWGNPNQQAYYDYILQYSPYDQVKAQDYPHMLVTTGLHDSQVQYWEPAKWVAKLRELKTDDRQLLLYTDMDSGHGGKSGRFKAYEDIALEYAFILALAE
The experiment in a line: Kitz-Wilson inactivation kinetics, residual BAPNA hydrolysis at […] nm; crystal structure of complex at […] A. The format is biochemical. Conditions: covalent; irreversible alkylation, Ki of the initial enzyme-inhibitor complex; bound to S532 and H652; 0.1 M Tris-HCl pH 8.0, 25 °C; 70 nM enzyme, 50–260 µM TCK.

`Cc1ccc(S(=O)(=O)N[C@@H](CCCCN)C(=O)CCl)cc1` [TCK]: the KI (inactivation) stood at 280 ± 60 µM.
